According to patent publication US12077503B2, “Substituted cyclic amides and their use as herbicides” (FMC CORPORATION, priority 2015, dated 2024):

Legend:
Type in all cases: in vivo
[1] = tested on: barnyardgrass (Echinochloa crus-galli); experiment: Test A postemergence; conditions: postemergence, 0 to 100 scale (0 no effect, 100 complete control)
Outline: (§1)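 Greenhouse, ~10 d after spray; visual injury vs untreated controls, 0 = no effect, 100 = complete control. Preemergence: directed soil spray over planted seeds. Postemergence: plants 2–10 cm, 1–2 leaf stage. Loam/sand blend. Compound in non-phytotoxic solvent with surfactant.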

[2] = tested on: Kochia (Kochia scoparia); experiment: Test A postemergence; conditions: postemergence, 0 to 100 scale (0 no effect, 100 complete control)
Outline: as §1

[3] = tested on: corn (Zea mays); experiment: Test A postemergence; conditions: postemergence, 0 to 100 scale (0 no effect, 100 complete control)
Outline: as §1

[4] = tested on: giant foxtail (Setaria faberii); experiment: Test A postemergence; conditions: postemergence, 0 to 100 scale (0 no effect, 100 complete control)
Outline: as §1

[5] = tested on: blackgrass (Alopecurus myosuroides); experiment: Test A postemergence; conditions: postemergence, 0 to 100 scale (0 no effect, 100 complete control)
Outline: as §1

[6] = tested on: Galium (catchweed bedstraw, Galium aparine); experiment: Test A postemergence; conditions: postemergence, 0 to 100 scale (0 no effect, 100 complete control)
Outline: as §1

[7] = tested on: pigweed (Amaranthus retroflexus); experiment: Test A postemergence; conditions: postemergence, 0 to 100 scale (0 no effect, 100 complete control)
Outline: as §1

[8] = tested on: wheat (Triticum aestivum); experiment: Test A postemergence; conditions: postemergence, 0 to 100 scale (0 no effect, 100 complete control)
Outline: as §1

[9] = tested on: ryegrass, Italian (Italian ryegrass, Lolium multiflorum); experiment: Test A postemergence; conditions: postemergence, 0 to 100 scale (0 no effect, 100 complete control)
Outline: as §1

[10] = tested on: ragweed (common ragweed, Ambrosia elatior); experiment: Test A postemergence; conditions: postemergence, 0 to 100 scale (0 no effect, 100 complete control)
Outline: as §1

[11] = tested on: barnyardgrass (Echinochloa crus-galli); experiment: Test B flooded paddy test; conditions: Flood, 250 g ai/ha; 0 to 100 scale where 0 is no effect and 100 is complete control; 13 to 15 d
Outline: (§2)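 Greenhouse paddy pots with 2-leaf stage plants received compound by direct addition to floodwater 3 cm deep, kept at that level. Scored visually at 13–15 d versus controls (0 no effect; 100 complete control).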

[12] = tested on: ducksalad (Heteranthera limosa); experiment: Test B flooded paddy test; conditions: Flood, 250 g ai/ha; 0 to 100 scale where 0 is no effect and 100 is complete control; 13 to 15 d
Outline: as §2

[13] = tested on: sedge, umbrella (small-flower umbrella sedge, Cyperus difformis); experiment: Test B flooded paddy test; conditions: Flood, 250 g ai/ha; 0 to 100 scale where 0 is no effect and 100 is complete control; 13 to 15 d
Outline: as §2

[14] = tested on: rice (Oryra sativa); experiment: Test B flooded paddy test; conditions: Flood, 250 g ai/ha; 0 to 100 scale where 0 is no effect and 100 is complete control; 13 to 15 d
Outline: as §2

[15] = tested on: barnyardgrass (Echinochloa crus-galli); experiment: Test A preemergence
Outline: as §1

[16] = tested on: Kochia (Kochia scoparia); experiment: Test A preemergence
Outline: as §1

[17] = tested on: giant foxtail (Setaria faberii); experiment: Test A preemergence
Outline: as §1

[18] = tested on: pigweed (Amaranthus retroflexus); experiment: Test A preemergence
[19] = tested on: ryegrass, Italian (Italian ryegrass, Lolium multiflorum); experiment: Test A preemergence
Outline: as §1

[20] = tested on: ragweed (common ragweed, Ambrosia elatior); experiment: Test A preemergence
Outline: as §1

[21] = 125 g ai/ha, visual rating after approx. 10 d
[22] = 500 g ai/ha, visual injury, approx. 10 d
[23] = 125 g ai/ha, Preemergence, visual injury after approximately 10 d, 0 to 100 scale where 0 is no effect and 100 is complete control
[24] = 500 g ai/ha, preemergence, 0 to 100 scale, 0 = no effect, 100 = complete control

CN1CC(c2cc(F)cc(F)c2)C(C(=O)Nc2cccc(F)c2F)C1=O (stereo not drawn) [Compound 644]
Plant response rating, Barnyardgrass [1, 21]: 90 | Plant response rating, Barnyardgrass [1, 22]: 90 | Plant response rating, Kochia [2, 21]: 20 | Plant response rating, Kochia [2, 22]: 70 | Plant response rating, Corn [3, 21]: 70 | Plant response rating, Corn [3, 22]: 80 | Plant response rating, Foxtail, Giant [4, 21]: 90 | Plant response rating, Foxtail, Giant [4, 22]: 90 | Plant response rating, Blackgrass [5, 21]: 60 | Plant response rating, Blackgrass [5, 22]: 70 | Plant response rating, Galium [6, 21]: 50 | Plant response rating, Galium [6, 22]: 60 | Plant response rating, Pigweed [7, 21]: 20 | Plant response rating, Pigweed [7, 22]: 30 | Plant response rating, Wheat [8, 21]: 50 | Plant response rating, Wheat [8, 22]: 80 | Plant response rating, Ryegrass, Italian [9, 21]: 50 | Plant response rating, Ryegrass, Italian [9, 22]: 80 | Plant response rating, Ragweed [10, 21]: 0 | Plant response rating, Ragweed [10, 22]: 40 | Plant response rating, Barnyardgrass [11]: 85 | Plant response rating, Ducksalad [12]: 98 | Plant response rating, Sedge, Umbrella [13]: 0 | Plant response rating, Rice [14]: 15 | Plant response rating, Barnyardgrass [15, 23]: 90 | Plant response rating, Barnyardgrass [15, 24]: 90 | Plant response rating, Kochia [16, 23]: 50 | Plant response rating, Kochia [16, 24]: 80 | Plant response rating, Foxtail, Giant [17, 23]: 90 | Plant response rating, Foxtail, Giant [17, 24]: 90 | Plant response rating, Pigweed [18, 23]: 60 | Plant response rating, Pigweed [18, 24]: 70 | Plant response rating, Ryegrass, Italian [19, 23]: 60 | Plant response rating, Ryegrass, Italian [19, 24]: 90 | Plant response rating, Ragweed [20, 23]: 50 | Plant response rating, Ragweed [20, 24]: 60
